Measurements published in paper PMC6130518, “Investigation of the effective components of the flowers of Trollius chinensis from the perspectives of intestinal bacterial transformation and intestinal absorption” (Pharmaceutical Biology, 2017).
“Also recorded” adds a separate entry of the source. Like-named read-outs stand apart in the source and are kept apart here.

Experiments:
[1] = test system: activated intestinal bacteria; assay: Intestinal bacterial transformation of AEOF; assay type: in vitro ADME, human; conditions: for After transformed by intestinal bacteria / Before transformed by intestinal bacteria: content in the extract; for transformation by intestinal bacteria (in words): in AEOF 15.0, 30.0, 60.0 mg/mL, up to 72 h, single person derived- or multiple people-derived intestinal bacteria
Experimental: Each 3 g of fresh feces from 3 healthy men and 3 healthy women of 23–25 years old was suspended in 200 mL of general anaerobic medium (GAM, including L-cystine hydrochloride, soluble starch, pepsin, tryptone, peptone, soy peptone, serum powder, yeast extract, beef extract, and beef liver extract powder purchased from Beijing Aoboxing Biotechnology Co., Ltd, Beijing, China) broth prepared as per a literature (Yang & Xu [2011]), respectively, and cultured in an anaerobic incubator (Shanghai Cimomedical Appliance Co., Ltd., Shanghai, China) at 37 °C for 24 h (Tsuchihashi et al. [2009]). […] Each 100 μL of the activated intestinal bacteria from the 6 volunteers were added into 11.4 mL of GAM, mixed adequately, and incubated in the same conditions as previously to obtain the mixture of activated intestinal bacteria. About 0.4513, 0.9026, and 1.8052 g of AEOF were dissolved in 30 mL of GAM on a super clean bench (Beijing Great Wall Air Purification Co. Ltd., Beijing, China), respectively, to generate the experimental groups. Then, the triplicate GAM containing AEOF was divided into 24 screw-cap test tubes, and each screw-cap test tube had 3 mL of the GAM and 100 μL of the activated intestinal bacteria and the mixture of activated intestinal bacteria, respectively. They were incubated under the same condition, and the test tubes of each concentration in triplicate were removed from the anaerobic incubator at 0, 2, 4, 6, 12, 24, 48, and 72 h. About 100 μL of the bacterial suspension was replaced with GAM to obtain the control group. The GAM absent of the AEOF was used as the blank group. […] About 300 μL of the supernatant was collected, filtered through a 0.45 μm membrane filter, and stored at −20 °C before HPLC analysis.
The HPLC analysis was performed using a Waters 1500 series (Waters Business Operations, Milford, MA) equipped with a 1525 binary HPLC pump, an on-line degasser, a manual injector and a 2489 UV/Visible detector. […] The temperature was set at 35 °C and the UV detecting wavelengths were 254 and 365 nm. The mobile phase consisted of acetonitrile (HPLC grade, Fisher Co., Pittsburgh, PA) (A) and 1.0% acetic acid (Beijing Chemical Works, Beijing, China) in purified water (v/v) (B), and the gradient elution program was as follows: 5–10% A (0–5 min), 10–20% A (5–10 min), 20–25% A (10–22 min), 25–40% A (22–35 min), 40–50% A (35–40 min), and 50–5% A (40–42 min) at a flow rate of 1.0 mL/min. The volume injected was 5 μL.

[2] = previous study, cited from earlier work
[3] = Absorption experiment with everted gut sacs; conditions: Sprague-Dawley, rat
[4] = test system: everted gut sacs (jejunum); assay: Absorption experiment with everted gut sacs; conditions: for transport percentage: Everted gut sacs, AP→BL; for After transported with everted gut sacs: intestinal bacterial transformed AEOF
[5] = Transport experiment with Caco-2 cell monolayers; conditions: human, Caco-2, Papp, Caco-2 cell monolayers; for Papp at 180 min, 10 mg/mL: extract 10 mg/mL; for Papp at 180 min, 20 mg/mL: extract 20 mg/mL; for Papp at 180 min, 30 mg/mL: extract 30 mg/mL
Experimental: (§1) The Caco-2 cells were cultured in the culture medium consisting of Dulbecco’s Modified Eagle Medium (DMEM, Gibco Inc., Grand Island, CA)-fetal bovine serum (FBS, Gibco Inc., Grand Island, CA)-nonessential amino acids (NEAA, Corning Costar, Cambridge, MA)-‘penicillin-streptomycin’ (Corning Costar, Cambridge, MA) (100:10:1:1, v/v/v/v) in 25 cm^2 flasks, which were incubated in 5% CO2 and constant temperature (37 °C) and humidity in the incubator. The culture medium was replaced every 2 or 3 days, and the cells were split 1:2 or 1:3 to conduct passage when they reached 80% confluence.
(§2) About 1.5 mL of the culture medium was added into the basal (BL) side of each well of the 12-well Transwell plates (insert diameter 12 mm, pore size 3.0 μm, membrane growth area 1.12 cm^2, Corning Costar, Cambridge, MA), and 0.5 mL of the Caco-2 cell suspension at the density of 2.0 × 10^5 cells/mL was seeded into the apical (AP) side of each insert. The cells were incubated in 5% CO2 and constant temperature (37 °C) and humidity in the incubator. The culture medium in both AP and BL sides was replaced every other day in the first week, then that in AP side was replaced every day and that in BL side was replaced every other day. The cells would differentiate and form a confluent monolayer. The integrity and viability of the cell monolayers were evaluated by measuring transepithelial electrical resistance (TEER) values in the culture medium at 37 °C using a Millicell®-ERS system (Millipore Corp., Bedford, MA), and only the inserts with the TEER above 600 Ω/cm^2 on day 21 were selected to perform the transport experiment.
(§3) About 200 μL of the solution in the receiving chambers was collected at 30, 60, 90, 120, 150, and 180 min, respectively, and then the same volume of HBSS was added. All samples were stored at −20 °C and filtered through a 0.45 μm membrane filter for HPLC analysis.
(§4) The HPLC conditions used for the analysis of the intestinal bacterial transformed AEOF before and after transport experiment was the same as above.
(§5) The transport percentage (%) was calculated using the formula transport percentage (%) = dQ/(C0 × V) × 100, wherein, V (mL) represented the volume of the donor compartment.

[6] = test system: Caco-2 cell monolayers; assay: Transport experiment with Caco-2 cell monolayers; conditions: for transport percentage: Caco-2 cell monolayers; for After transported with Caco-2 cell monolayers: intestinal bacterial transformed AEOF
Experimental: as §1, §2, §3, §4, §5

[7] = first of three lines per compound (lowest extract concentration)
[8] = first of three lines per compound (lowest extract concentration; AEOF 15, 30, 60 mg/mL)
[9] = second of three lines per compound (middle extract concentration, not given)
[10] = third of three lines per compound (highest extract concentration, not given)
[11] = first of three lines per compound (lowest concentration; 10, 20, 30 mg/mL)
[12] = second of three lines per compound (middle concentration, not given)
[13] = third of three lines per compound (highest concentration, not given)
[14] = ref Liu et al. [2014], Wu et al. [2014]

SMILES: O=c1cc(-c2ccc(O)c(O)c2)oc2c([C@@H]3O[C@H](CO)[C@@H](O)[C@H](O)[C@H]3O)c(O)cc(O)c12 [orientin]
- After transformed by intestinal bacteria [1, 7]: 11.83 µg/mL
- Before transformed by intestinal bacteria [1, 8]: 10.27 µg/mL
- After transformed by intestinal bacteria [1, 9]: 20.38 µg/mL
- Before transformed by intestinal bacteria [1, 9]: 20.33 µg/mL
- After transformed by intestinal bacteria [1, 10]: 43.42 µg/mL
- Before transformed by intestinal bacteria [1, 10]: 43.87 µg/mL
- transformation by intestinal bacteria (in words) [1]: not transformed; also recorded: not changed
- absorption mechanism ([2]; ref Liu et al. [2015]): transporter mediated efflux in addition to passive diffusion
- Papp at 180 min, 10 mg/mL [3]: 21.9 ± 2.4 ×10⁻⁶ cm/s
- Papp at 180 min, 20 mg/mL [3]: 18.5 ± 0.1 ×10⁻⁶ cm/s
- Papp at 180 min, 30 mg/mL [3]: 34 ± 3.4 ×10⁻⁶ cm/s
- transport percentage ([4]; extract 10 mg/mL): 4.67%
- transport percentage ([4]; extract 20 mg/mL): 3.50%
- transport percentage ([4]; extract 30 mg/mL): 6.75%
- After transported with everted gut sacs [4, 11]: 0.32 µg/mL
- After transported with everted gut sacs [4, 12]: 0.49 µg/mL
- After transported with everted gut sacs [4, 13]: 1.04 µg/mL
- Papp at 180 min, 10 mg/mL ([5]; AP→BL): 25.3 ± 0.3 ×10⁻⁶ cm/s
- Papp at 180 min, 10 mg/mL ([5]; BL→AP): 19.2 ± 1.4 ×10⁻⁶ cm/s
- Papp at 180 min, 20 mg/mL ([5]; AP→BL): 13.5 ± 0.2 ×10⁻⁶ cm/s
- Papp at 180 min, 20 mg/mL ([5]; BL→AP): 11.8 ± 0.2 ×10⁻⁶ cm/s
- Papp at 180 min, 30 mg/mL ([5]; AP→BL): 19.5 ± 1.4 ×10⁻⁶ cm/s
- Papp at 180 min, 30 mg/mL ([5]; BL→AP): 16.3 ± 0.6 ×10⁻⁶ cm/s
- transport percentage ([6]; extract 10 mg/mL, AP→BL): 30.53%
- transport percentage ([6]; extract 10 mg/mL, BL→AP): 7.73%
- transport percentage ([6]; extract 20 mg/mL, AP→BL): 16.39%
- transport percentage ([6]; extract 20 mg/mL, BL→AP): 4.76%
- transport percentage ([6]; extract 30 mg/mL, AP→BL): 23.54%
- transport percentage ([6]; extract 30 mg/mL, BL→AP): 6.56%
- After transported with Caco-2 cell monolayers [6, 11]: 0.33 µg/mL
- After transported with Caco-2 cell monolayers [6, 12]: 0.35 µg/mL
- After transported with Caco-2 cell monolayers [6, 13]: 0.82 µg/mL

SMILES: COc1cc(C(=O)O)cc(CC=C(C)C)c1O [proglobeflowery acid]
- After transformed by intestinal bacteria [1, 7]: 32.40 µg/mL
- Before transformed by intestinal bacteria [1, 8]: 2.55 µg/mL
- After transformed by intestinal bacteria [1, 9]: 67.09 µg/mL
- Before transformed by intestinal bacteria [1, 9]: 4.78 µg/mL
- After transformed by intestinal bacteria [1, 10]: 134.85 µg/mL
- Before transformed by intestinal bacteria [1, 10]: 6.67 µg/mL
- transformation by intestinal bacteria (in words) [1]: not transformed; also recorded: not changed
- absorption mechanism [2, 14]: mainly through passive diffusion
- Papp at 180 min, 10 mg/mL [3]: 450 ± 11 ×10⁻⁶ cm/s
- Papp at 180 min, 20 mg/mL [3]: 534 ± 14 ×10⁻⁶ cm/s
- Papp at 180 min, 30 mg/mL [3]: 586 ± 8 ×10⁻⁶ cm/s
- transport percentage ([4]; extract 10 mg/mL): 9.60%
- transport percentage ([4]; extract 20 mg/mL): 10.58%
- transport percentage ([4]; extract 30 mg/mL): 11.61%
- After transported with everted gut sacs [4, 11]: 1.95 µg/mL
- After transported with everted gut sacs [4, 12]: 4.95 µg/mL
- After transported with everted gut sacs [4, 13]: 7.74 µg/mL
- Papp at 180 min, 10 mg/mL ([5]; AP→BL): 105 ± 4 ×10⁻⁶ cm/s
- Papp at 180 min, 10 mg/mL ([5]; BL→AP): 223 ± 16 ×10⁻⁶ cm/s
- Papp at 180 min, 20 mg/mL ([5]; AP→BL): 123 ± 26 ×10⁻⁶ cm/s
- Papp at 180 min, 20 mg/mL ([5]; BL→AP): 142 ± 5 ×10⁻⁶ cm/s
- Papp at 180 min, 30 mg/mL ([5]; AP→BL): 181 ± 22 ×10⁻⁶ cm/s
- Papp at 180 min, 30 mg/mL ([5]; BL→AP): 105 ± 4 ×10⁻⁶ cm/s
- transport percentage ([6]; extract 10 mg/mL, AP→BL): 127.39%
- transport percentage ([6]; extract 10 mg/mL, BL→AP): 89.93%
- transport percentage ([6]; extract 20 mg/mL, AP→BL): 148.57%
- transport percentage ([6]; extract 20 mg/mL, BL→AP): 57.32%
- transport percentage ([6]; extract 30 mg/mL, AP→BL): 219.09%
- transport percentage ([6]; extract 30 mg/mL, BL→AP): 42.47%
- After transported with Caco-2 cell monolayers [6, 11]: 11.11 µg/mL
- After transported with Caco-2 cell monolayers [6, 12]: 17.18 µg/mL
- After transported with Caco-2 cell monolayers [6, 13]: 23.46 µg/mL

SMILES: O=C1CC[C@H]2c3cc(O)c(O)cc3CCN12 [trolline]
- After transformed by intestinal bacteria [1, 7]: 22.37 µg/mL
- Before transformed by intestinal bacteria [1, 8]: 22.80 µg/mL
- After transformed by intestinal bacteria [1, 9]: 36.28 µg/mL
- Before transformed by intestinal bacteria [1, 9]: 35.96 µg/mL
- After transformed by intestinal bacteria [1, 10]: 71.00 µg/mL
- Before transformed by intestinal bacteria [1, 10]: 73.23 µg/mL
- transformation by intestinal bacteria (in words) [1]: not transformed; also recorded: not changed
- absorption mechanism [2, 14]: an associative mechanism including both active and passive transports
- Papp at 180 min, 10 mg/mL [3]: 138 ± 1 ×10⁻⁶ cm/s
- Papp at 180 min, 20 mg/mL [3]: 107 ± 5 ×10⁻⁶ cm/s
- Papp at 180 min, 30 mg/mL [3]: 151 ± 4 ×10⁻⁶ cm/s
- transport percentage ([4]; extract 10 mg/mL): 29.42%
- transport percentage ([4]; extract 20 mg/mL): 20.32%
- transport percentage ([4]; extract 30 mg/mL): 30.00%
- After transported with everted gut sacs [4, 11]: 4.33 µg/mL
- After transported with everted gut sacs [4, 12]: 6.97 µg/mL
- After transported with everted gut sacs [4, 13]: 14.76 µg/mL
- Papp at 180 min, 10 mg/mL ([5]; AP→BL): 112 ± 7 ×10⁻⁶ cm/s
- Papp at 180 min, 10 mg/mL ([5]; BL→AP): 231 ± 7 ×10⁻⁶ cm/s
- Papp at 180 min, 20 mg/mL ([5]; AP→BL): 127 ± 12 ×10⁻⁶ cm/s
- Papp at 180 min, 20 mg/mL ([5]; BL→AP): 194 ± 2 ×10⁻⁶ cm/s
- Papp at 180 min, 30 mg/mL ([5]; AP→BL): 107 ± 6 ×10⁻⁶ cm/s
- Papp at 180 min, 30 mg/mL ([5]; BL→AP): 184 ± 11 ×10⁻⁶ cm/s
- transport percentage ([6]; extract 10 mg/mL, AP→BL): 135.43%
- transport percentage ([6]; extract 10 mg/mL, BL→AP): 93.13%
- transport percentage ([6]; extract 20 mg/mL, AP→BL): 153.03%
- transport percentage ([6]; extract 20 mg/mL, BL→AP): 78.21%
- transport percentage ([6]; extract 30 mg/mL, AP→BL): 130.00%
- transport percentage ([6]; extract 30 mg/mL, BL→AP): 74.30%
- After transported with Caco-2 cell monolayers [6, 11]: 8.10 µg/mL
- After transported with Caco-2 cell monolayers [6, 12]: 13.59 µg/mL
- After transported with Caco-2 cell monolayers [6, 13]: 19.15 µg/mL
